Data taken from patent publication US6602499B1, “Combination viral-based and gene-based therapy of tumors” (priority 1998, dated 2003).

How the values were obtained:
[1] = system: rRp450- and hrR3-infected 9L cells; test: Viral protein synthesis (35S-methionine pulse, autoradiography) in infected 9L cells; type: cell-based, rat; conditions: 9L cells grown with 250 uM CPA or 100 ng/ml ganciclovir for 30 hours, then infected with rRp450 or hrR3 at MOI=3
Procedure: FIG. 4 is an autoradiograph depicting the effect of CPA on rRp450 protein synthesis in infected 9L tumor cells. 9L tumor cells were grown in the presence of CPA (lanes 3 and 6), 100 ng/ml ganciclovir (lanes 2 and 5), or vehicle (lanes 1 and 4). Cells from each group were then infected with rRp450 (lanes 4-6) or hrR3 (lanes 1-3). After pulsing with ^35S-methionine, cell lysates were separated by electrophoresis. The designations, 6,5,8, gB, and pgB indicate the viral ICP6-lacZ fusion, ICP5, ICP8, and glycoprotein B, respectively. The size of molecular weight markers is indicated on the left side of the blot.
Measurement of Viral Protein Synthesis: 9L tumor cells were grown in the presence of 250 uM CPA, 100 ng/ml ganciclovir, or vehicle for 30 hours. Cells from each group were then infected with rRp450 or hrR3 at an MOI=3. Control plates were infected with a mock viral preparation. Eighteen hours later, medium was removed and fresh medium containing 20 uCi of ^35S-methionine was added. Cells were then scraped and harvested two hours later. Cell pellets were resuspended in sodium phosphate, pH=7.3. in 0.9% sodium chloride in the presence of protease inhibitors and then sheared by passage through a 28 and a ½ gauge needle. Protein concentrations were calculated by using a commercially available kit (BioRad). […]

[2] = system: human U87 tumors; test: Subcutaneous human U87 glioma tumors in athymic mice, intratumoral injection; type: in vivo; conditions: rRp450 2.5×10^8 pfus plus vehicle, or 1 mg CPA alone
From the text: FIG. 6B is a graph depicting the in vivo augmentation of rRp450's oncolytic effect by CPA on U87 tumors. Human U87 tumors were inoculated with CPA (closed circles), rRp450 plus vehicle (open circles), or rRp450 plus CPA (dark squares). The black vertical arrows indicate the times of injection (days 1, 2, 4, and 6). Values represent the average tumor volume from 5 mice per group. Error bars represent the standard error of the mean. For this experiment, differences were statistically significant at the 22, 26 and 29 day time point (P<0.05, one way analysis of variance).
In a similar experiment, visible subcutaneous nodules (the range of volumes was 10-135 mm^3 and the average volume was 74 mm^3) were established by the injection of 10^6 human U87 glioma cells into the subcutaneous flank of athymic mice (NCY/sed, nu/nu; MGH breeding colony). Thirty days later the tumors were treated with intratumoral injections, using a Hamilton syringe, of 1 mg CPA in 125 ul of medium, rRp450 (2.5×10^8 pfus) plus vehicle in 125 ul of medium, or rRp450 (2.5×10^8 pfus) plus 1 mg CPA in 125 ul of medium. Tumor inoculations were repeated on day 2, day 4 and day 6. Five mice were used per treatment group. […]

[3] = system: Vero cells; type: cell-based; conditions: CPA at concentrations up to 200 uM
[4] = system: 9L cells; test: Viral yields from infected 9L cells treated with cyclophosphamide, plaque assay on Vero cells; type: cell-based, rat; conditions: 9L cells infected with rRp450 in presence or absence of cyclophosphamide, three days
Procedure: Three day later, cells and supernatants were harvested and virus was harvested by freeze-thawing three times. Plaque-assays on Vero cells were performed to measure viral yields. Assay was performed in triplicate plates.
Cell culture studies: Cells were usually plated the day before viral infection. The following day, 3 random dishes were trypsinized and cell numbers were enumerated using a Coulter counter. Based on the mean cell number, the viral mutant was added to achieve the desired multiplicity of infection (MOI). Experiments were performed in triplicate dishes.
CPA: CPA was added at the start of the incubation period at a concentration of 250 Um.

SMILES	Effect of drug on viral protein synthesis [1]	Growth of U87 tumors, agent alone [2]	Inhibition of plaque production [3]	Effect of CPA on replication of rRp450 [4]
O=P1(N(CCCl)CCCl)NCCCO1 (stereo not drawn) [CPA, cyclophosphamide]	did not appear to significantly inhibit viral protein synthesis	relatively rapid	did not inhibit plaque production	did not significantly inhibit replication of rRp450
Nc1nc(O)c2ncn(COC(CO)CO)c2n1 [ganciclovir]	inhibited the synthesis of viral proteins		did	
